This is an account of results in patent publication US20070161634A1, “Compounds as CCR5 antagonists” (priority 2004, published 2007).

Where two headings read alike, the source gives them in different places.

One data set concerns the target CCR5 receptor (Homo sapiens, UniProt P51681). Kind of data set: [35S]GTPγS binding assay. The format is biochemical. The text has this: [^35S]GTPγS binding assay
CCR5 receptor binds to agonists and changes its conformation which enables it to interact with and activate G protein, a heterotrimer which consists of subunits α and βγ. The capability of G protein α subunit binding to GTP depends on the effect between CCR5 and the agonists, therefore, the amount of α subunit bound GTP should reflect the agonists activity on the CCR5 receptor. In the GTPγS binding assay, [^35S]GTPγS is resistant to the GTPase activity of α subunit, and thus cannot be hydrolyzed when bound to G protein, making it accurate to reflect the receptor activation. Radiolabled [^35S]GTPγS can also serve as marker for detection in place of GTP. When CCR5 is not activated, α subunit is bound to GDP, but when CCR5 is activated, α subunit binds to [^35S]GTPγS, therefore, measurement of the number of the α subunit-bound ^35S-GTPγS can reflect the CCR5 activation level.
CCR5 activation of G-protein was measured according to assays below:
Permanent cell line expressing CHO of CCR5 (available at Euroscreen S.A., Belgium) was lysed by lysis buffer (5 mM Tris HCl, pH 7.5, 5 mM EDTA and 5 mM EGTA), and centrifuged at 15,000×g for 10 min. Cell membrane was resuspended with reaction buffer (5 mM Tris HCl, pH 7.5, 5 mM MgCl2, 1 mM EGTA, 100 mM NaCl), and protein concentrations were determined using Bioford assay (Bio-rad). [^35S]GTPγS binding assay was performed in the 100 μl reaction buffer system, which contains 10 ug membrane protein, 40 uM GDP and 0.5 nM [^35S]GTPγS (1200 Ci/mmol). After adding the study compounds, the system was vortexed and placed on ice for 5 min, and then CCR5 agonist was added (10 nM RANTES or 30 nM MIP1β). After vortexing, the reaction tubes were incubated at 30° C. for 1 h. After the reaction was complete, the reaction tubes were placed on ice and diluted with PBS to terminate the reaction. After suction through the GF/C filter membrane under vacuum, the membrane bound radioactivity was measured with a scintillation counter. Basal binding was measured without presence of agonist, and non-specific binding was measured in the presence of 10 mM nonisotopical GTPγS. The binding ratio of [^35S]GTPγS was calculated according to 100×[c.p.m.sample−c.p.m. non-specific]/[c.p.m.basal−c.p.m. non-specific]. IC50 was the compound concentration at which half of the [^35S]GTPγS binding induced by 10 nM RANTES or 30 nM MIP1β was inhibited, and the value was obtained from the concentration-inhibition curve (6-7 points for concentrations of each compound).

The next data set addresses CXCR4 (Homo sapiens, UniProt P61073). Kind of data set: effects on the activation of CXCR4 receptor. To be noted: at the concentration of 10,000 nM.
In another data set the target is T1, CCR1 (Homo sapiens, UniProt P32246).
T1 sequence (P32246 1-355): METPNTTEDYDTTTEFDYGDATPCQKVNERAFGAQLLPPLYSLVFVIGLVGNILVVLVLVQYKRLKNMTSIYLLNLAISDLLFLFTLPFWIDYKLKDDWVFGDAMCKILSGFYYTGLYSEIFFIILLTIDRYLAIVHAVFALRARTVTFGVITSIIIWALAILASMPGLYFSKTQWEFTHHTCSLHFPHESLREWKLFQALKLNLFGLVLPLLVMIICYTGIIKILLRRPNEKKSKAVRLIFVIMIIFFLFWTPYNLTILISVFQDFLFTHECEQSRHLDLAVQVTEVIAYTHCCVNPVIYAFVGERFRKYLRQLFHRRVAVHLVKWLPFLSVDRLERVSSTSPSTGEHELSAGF
The data set can be described thus: effects on the activation of CCR1 receptor. As to conditions: at the concentration of 10,000 nM.

Another data set is described as follows: MTT cytotoxicity assay. The format is cell-based. To be noted: human, peripheral blood mononuclear cells (PBMC) and Jurkat cells; MTT. On the procedure:
(§1) C. MTT Cytotoxicity Assay
(§2) Cells were prepared as single cell suspension, and cell densities were adjusted according to the cell size and cell features. Cells were inoculated with 100 ul culture media into 96 well plates, and incubated in 37° C. incubator (5% CO2, saturated humidity). The seeding densities were as follows: peripheral blood monouclear cells (PBMC) 10^5 cells /well, Jurket 4×10^4 cells/well. 24 h after cell inoculation, the compounds to be tested were added and incubated with cells. 48 h after inoculation, 10 μl MTT (Sigma, USA, 5 mg/ml, diluted with PBS and stored at −20° C.) was added to each well, and incubated for another 4 h in 37° C. incubator. Then add 50 μl formazane solvent (10%SDS-5%isopropanol−0.01M HCl) and incubate overnight. Determine OD570/OD630 nm at spectrophotometer, and calculate CC50 according to the inhibition curve.

Data set [1] relates to peripheral blood monouclear cells (PBMC), Jurket. The data set can be described thus: MTT cytotoxicity assay. The format is cell-based. As to conditions: at 10,000 nM. On the procedure: as §1, §2
The test system of data set [2] is HEK 293 cells expressing human CCR5 receptors (293CCR5). Kind of data set: Chemotaxis assay. The format is cell-based. As to conditions: chemotaxis caused by 10 nM RANTES, read-out: IC50 on cell chemotaxis.
Protocol: The procedures were as follows:
The assay is performed with a 48 well plate (AP48, Neuroprobe Inc., USA) and 8 uM filter membrane (25×80 mm). The filter membrane was pre-immersed in rat tail collagen for at least 2 h. The filter membrane was taken out and dried on a super-clean bench, then the filter membrane was immersed in 0.1% BSA-MEM. HEK 293 cells expressing human CCR5 receptors (293CCR5) (available at Euroscreen S.A., Belgium) were digested with D.T. for 1 min, and pelleted by centrifugation at 200 g. Resuspend the cells in 0.1% BSA-MEM, count and dilute the cell suspension to 3×10^6 cells/ml. Fill each well with 26.5 μl tll of a chemokine dilution or 1% BSA MEM, place the filter membrane and cover a lid on the well, add 50 μl of the cells suspension to each well. When testing the compound antagonism, the compounds to be tested were added to the cell suspension, and pre-incubated at 37° C. for 20 min. Then place the plate in 37° C. incubator, and incubate for 6 h. Take out of the filter membrane and remove the cells in the well, fix the filter membrane in 4% polyformaldehyde solution at 4° C. overnight. The filter membrane was taken out the next day and stained with crystal violet for at least 2 h, then wash with water and allow it to dry. Scan the filter membrane, and calculate the shades with Scion Image. […]
Another data set can be described thus: water solubility. To be noted: mesylate compared with II-a-a. In kind it is physicochemical.
[3] abbreviates: Table I, [35S]GTPγS binding, read-out: IC50.
Where [4] appears, read: [35S]GTPγS binding initiated by 10 nM RANTES, read-out: IC50(nM) ± S.E.

Chain of CCR5 receptor (P51681 whole entry): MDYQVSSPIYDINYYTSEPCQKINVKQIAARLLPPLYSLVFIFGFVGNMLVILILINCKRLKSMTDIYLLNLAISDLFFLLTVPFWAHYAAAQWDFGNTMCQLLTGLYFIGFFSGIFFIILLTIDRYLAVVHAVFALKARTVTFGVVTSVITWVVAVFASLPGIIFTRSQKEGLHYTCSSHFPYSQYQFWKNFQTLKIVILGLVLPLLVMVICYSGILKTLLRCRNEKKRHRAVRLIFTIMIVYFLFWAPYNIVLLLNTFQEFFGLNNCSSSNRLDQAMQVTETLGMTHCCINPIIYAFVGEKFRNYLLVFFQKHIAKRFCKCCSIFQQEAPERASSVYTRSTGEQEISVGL
Chain of CXCR4 (P61073 whole entry, species assumed): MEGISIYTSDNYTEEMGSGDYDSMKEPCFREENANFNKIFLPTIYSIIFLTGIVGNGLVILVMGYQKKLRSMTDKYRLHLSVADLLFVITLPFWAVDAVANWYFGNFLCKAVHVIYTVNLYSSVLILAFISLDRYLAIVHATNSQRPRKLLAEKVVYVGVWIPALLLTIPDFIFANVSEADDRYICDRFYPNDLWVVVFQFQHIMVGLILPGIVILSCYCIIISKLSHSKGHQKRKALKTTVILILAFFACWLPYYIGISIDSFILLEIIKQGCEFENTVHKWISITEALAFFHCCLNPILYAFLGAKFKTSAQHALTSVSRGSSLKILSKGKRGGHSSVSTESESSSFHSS

Regarding `C=CCN(C(=O)OCc1ccc([N+](=O)[O-])cc1)C1CCN(CC2CN(C(=O)c3ccccc3)CC2(O)c2ccccc2)CC1` (stereo not drawn) [III-a-b, 4-nitrobenzyl allyl(1-((1-benzoyl-4-hydroxy-4-phenylpyrrolidin-3-yl)methyl)piperidin-4-yl) carbamate], the IC50 on CCR5 receptor (setting [3]) and at CCR5 receptor (setting [4]) was 9.7 ± 0.7 nM in each case. The “activation or antagonism of CXCR4 receptor” value at CXCR4 is “do not activate or antagonize”. Besides, at CCR1, the “activation or antagonism of CCR1 receptor” value is given as “do not activate or antagonize”. The molecule also gave a CC50 at 24 h in the data set “MTT cytotoxicity assay” of around 30000 nM. In addition, the cytotoxicity on cells result in data set [1] is recorded as “no significant cytotoxicity”.
As for `C=CCN(C(=O)OCc1ccc([N+](=O)[O-])cc1)C1CCN(CC2CN(C(=O)c3ccccc3I)CC2(O)c2ccccc2)CC1` (stereo not drawn) [III-a-c, 4-nitrobenzyl allyl(1-((4-hydroxy-1-(2-iodobenzoyl)-4-phenylpyrrolidin-3-yl)methyl)piperidin-4-yl)carbamate], the IC50 on CCR5 receptor (setting [3]) and on CCR5 receptor (setting [4]) was 24.9 ± 8.8 nM in each case. Besides, the “activation or antagonism of CXCR4 receptor” value at CXCR4 was “do not activate or antagonize”. Moreover, the “activation or antagonism of CCR1 receptor” value on CCR1 is “do not activate or antagonize”. The cytotoxic concentration (CC50) at 24 h in “MTT cytotoxicity assay” is around 30000 nM. Besides, the cytotoxicity on cells entry in data set [1] is listed as “no significant cytotoxicity”.
As to `C=CCN(C(=O)OCc1ccc([N+](=O)[O-])cc1)C1CCN(CC2CN(C(=O)c3cccc4ccccc34)CC2(O)c2ccccc2)CC1` (stereo not drawn) [III-a-d, 4-nitrobenzyl 1-((1-(1-naphthoyl)-4-hydroxy-4-phenylpyrrolidin-3-yl)methyl)piperidin-4-yl(allyl)carbamate], the IC50 on CCR5 receptor (setting [3]) and at CCR5 receptor (setting [4]) was 26.8 ± 2 nM throughout. The “activation or antagonism of CXCR4 receptor” value on CXCR4 is “do not activate or antagonize”. Also, the “activation or antagonism of CCR1 receptor” value on CCR1 was “do not activate or antagonize”. Besides, the CC50 at 24 h in “MTT cytotoxicity assay” is around 30000 nM. Besides, the cytotoxicity on cells entry in data set [1] is recorded as “no significant cytotoxicity”.
As to `C=CCN(C(=O)OCc1ccc([N+](=O)[O-])cc1)C1CCN(CC2CN(C(=O)C3CCCC3)CC2(O)c2ccccc2)CC1` (stereo not drawn) [III-a-e, 4-nitrobenzyl allyl(1-((1-(cyclopentanecarbonyl)-4-hydroxy-4-phenylpyrrolidin-3-yl)methyl)piperidin-4-yl)carbamate], the concentration for half-maximal inhibition (IC50) at CCR5 receptor (setting [3]) is 5.3 ± 0.6 nM; at CCR5 receptor (setting [4]), 5.3 ± 0.6 nM; in data set [2], around 30 nM. Besides, at CXCR4, the “activation or antagonism of CXCR4 receptor” value was “do not activate or antagonize”. For the same molecule, the “activation or antagonism of CCR1 receptor” value at CCR1 is given as “do not activate or antagonize”. In addition, the cytotoxic concentration (CC50) at 24 h in the data set “MTT cytotoxicity assay” was around 30000 nM. Also, the cytotoxicity on cells result in data set [1] is on record as “no significant cytotoxicity”.
`C=CCN(C(=O)OCc1ccc([N+](=O)[O-])cc1)C1CCN(CC2CN(C(=O)C3CCCCC3)CC2(O)c2ccccc2)CC1` (stereo not drawn) [III-a-f, 4-nitrobenzyl allyl(1-((1-(cyclohexanecarbonyl)-4-hydroxy-4-phenylpyrrolidin-3-yl)methyl)piperidin-4-yl)carbamate]: the values for the IC50 at CCR5 receptor (setting [3]) and on CCR5 receptor (setting [4]) were 7.3 nM and 7.3 ± 0.6 nM, respectively. Besides, on CXCR4, the “activation or antagonism of CXCR4 receptor” value is “do not activate or antagonize”. Further, the “activation or antagonism of CCR1 receptor” value at CCR1 is recorded as “do not activate or antagonize”. In addition, in “MTT cytotoxicity assay”, the CC50 at 24 h was around 30000 nM. Also, the cytotoxicity on cells entry in data set [1] is “no significant cytotoxicity”.
Turning to `CCN(C(=O)OCc1ccccc1)C1CCN(CC2CN(Cc3ccccc3)CC2(O)c2ccccc2)CC1` (stereo not drawn) [mesylate of II-a-a], the IC50 on CCR5 receptor (b360, read-out: IC50) came to 342 ± 72.5 nM. In “water solubility”, the water solubility increase entry is recorded as “about 10 fold”.
